Laboratory results as given in patent publication US20060257543A1, “Molecules comprising linked organic moieties as flavor modifiers for comestible compositions” (priority 2005, published 2006).
Where two headings read alike, the source gives them in different places.

Experiments:
[1] = target: T1, hT1R1/hT1R3 umami receptor expressed in an HEK293 cell line (Homo sapiens, UniProt Q7RTX0+Q7RTX1); assay: Umami taste enhancement activity assay (EC50 ratio vs. MSG); assay type: cell-based
T1 construct: expressed in transfected cells; host or cells: HEK293 derivative, clone I-17, expression induced with mifepristone
T1 sequence (Q7RTX1 21-841): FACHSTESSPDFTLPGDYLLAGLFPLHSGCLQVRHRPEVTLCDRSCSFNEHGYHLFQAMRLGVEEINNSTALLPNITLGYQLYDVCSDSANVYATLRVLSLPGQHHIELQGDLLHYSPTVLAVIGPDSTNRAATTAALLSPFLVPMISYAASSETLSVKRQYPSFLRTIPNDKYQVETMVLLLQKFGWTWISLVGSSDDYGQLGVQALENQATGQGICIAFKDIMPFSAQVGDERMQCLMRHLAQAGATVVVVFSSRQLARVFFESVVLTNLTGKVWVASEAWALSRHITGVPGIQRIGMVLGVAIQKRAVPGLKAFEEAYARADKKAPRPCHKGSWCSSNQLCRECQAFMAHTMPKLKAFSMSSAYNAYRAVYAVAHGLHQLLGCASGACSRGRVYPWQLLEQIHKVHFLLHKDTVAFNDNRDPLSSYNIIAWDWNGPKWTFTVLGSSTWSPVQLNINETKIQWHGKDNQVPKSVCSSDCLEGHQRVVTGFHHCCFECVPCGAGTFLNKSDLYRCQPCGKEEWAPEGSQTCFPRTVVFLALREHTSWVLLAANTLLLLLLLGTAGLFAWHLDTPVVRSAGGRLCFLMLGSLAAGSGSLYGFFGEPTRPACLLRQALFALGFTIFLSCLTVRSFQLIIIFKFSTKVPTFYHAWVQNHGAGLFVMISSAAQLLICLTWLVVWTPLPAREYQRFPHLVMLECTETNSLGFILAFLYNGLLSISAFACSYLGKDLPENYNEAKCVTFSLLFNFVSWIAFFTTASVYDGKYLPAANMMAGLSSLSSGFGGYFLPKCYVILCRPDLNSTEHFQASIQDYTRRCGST
T1 sequence (Q7RTX0 21-852): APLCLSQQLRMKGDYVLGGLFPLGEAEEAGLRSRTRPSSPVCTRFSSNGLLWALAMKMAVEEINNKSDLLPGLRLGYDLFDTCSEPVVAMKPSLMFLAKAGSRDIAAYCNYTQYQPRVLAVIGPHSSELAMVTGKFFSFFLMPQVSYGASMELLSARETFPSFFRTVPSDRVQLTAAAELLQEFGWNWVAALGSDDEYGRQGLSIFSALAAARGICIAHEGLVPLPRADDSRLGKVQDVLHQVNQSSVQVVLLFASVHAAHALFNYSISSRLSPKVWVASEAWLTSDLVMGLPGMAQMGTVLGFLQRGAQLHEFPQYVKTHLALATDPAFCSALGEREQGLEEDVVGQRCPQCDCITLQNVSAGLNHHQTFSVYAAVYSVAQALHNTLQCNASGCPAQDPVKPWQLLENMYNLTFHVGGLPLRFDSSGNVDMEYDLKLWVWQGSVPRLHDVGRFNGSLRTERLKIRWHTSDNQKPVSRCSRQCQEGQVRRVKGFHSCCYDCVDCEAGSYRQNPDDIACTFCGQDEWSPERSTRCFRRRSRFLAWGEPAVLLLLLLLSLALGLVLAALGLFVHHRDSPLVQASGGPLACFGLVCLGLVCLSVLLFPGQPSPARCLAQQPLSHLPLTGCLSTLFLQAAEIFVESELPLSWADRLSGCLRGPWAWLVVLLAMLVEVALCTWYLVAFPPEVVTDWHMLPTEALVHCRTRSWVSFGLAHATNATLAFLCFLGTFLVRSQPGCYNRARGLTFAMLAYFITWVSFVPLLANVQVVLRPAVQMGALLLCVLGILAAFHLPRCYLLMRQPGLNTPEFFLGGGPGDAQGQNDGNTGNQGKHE
Source text: In umami taste enhancement activity assay experiments, which produce an “EC50 ratio” measurement of how effectively the tastant compounds of the invention enhance the savory flavorant (typically MSG) already in a test solution. A series of measurements of the dose response is run in solutions comprising MSG alone, then a second dose response is run with MSG in combination with predetermined amounts of a candidate compound of Formula (I) at the same time.
In this assay, increasing concentrations of monosodium glutamate (ranging from 12 μM to 81 mM) were presented, in duplicates, in the presence or absence of a fixed concentration of the test compound. Typical compound concentrations tested were 30 μM, 10 μM, 3 μM, 1 μM, 0.3 μM, 0.1 μM and 0.03 μM. The relative efficacy of compounds of Formula (I) at enhancing the receptor was determined by calculating the magnitude of a shift in the EC50 for monosodium glutamate. Enhancement was defined as a ratio (EC50R) corresponding to the EC50 of monosodium glutamate, determined in the absence of the test compound, divided by the EC50 of monosodium glutamate, determined in the presence of the test compound.
Stated alternatively, “EC50 ratio” as compared to MSG is calculated based on the following definitions:
EC50 Ratio vs. MSG=EC50 (MSG)/EC50 (MSG+[Compound]) • wherein “[compound]” refers to the concentration of the compound of Formula (I) used to elicit (or enhance or potentiate) the MSG dose response.
It should be noted that the EC50 ratio measured can depend somewhat on the concentration of the compound itself. Preferred savory enhancers would have a high EC50 Ratio vs. MSG at a low concentration of the compound used. Preferably the EC50 ratio experiments to measure umami enhancement are run at a concentration of a compound of Formula (I) between about 10 μM to about 0.1 μM, or preferably at […] or 3.0 μM.

[2] = target: T1, hT1R1/hT1R3 umami receptor expressed in an HEK293 cell line; assay: In vitro hT1R1/hT1R3 umami taste receptor activation assay (FLIPR, dose response); assay type: cell-based
Source text: In order to identify new savory flavoring agents and enhancers, including compounds with savory agonist and enhancer activities (dual activity), the tastant compounds of Formula (I) were screened in primary assays and secondary assays including compound dose response and enhancement assay. In a primary assay for potential ability to modulate umami taste, tastant compounds of Formula (I) that can be either savory flavoring agents in their own right or flavor enhancers of MSG are identified and scores of their activities are given as percentage of the maximum MSG intensity (%). In compound dose response, an EC50 is calculated to reflect the potency of the compound as a savory agonist or enhancer.
An HEK293 cell line derivative (see e.g., Chandrashekar, et al., Cell (2000) 100: 703-711) which stably expresses Gα15 and hT1R1/hT1R3 under an inducible promoter (see WO 03/001876 A2) was used to identify compounds with savory tasting properties.
Compounds disclosed in this application were initially selected based on their activity on the hT1R1/hT1R3-HEK293-Gα15 cell line. Activity was determined using an automated fluorometric imaging assay on a FLIPR instrument (Fluorometric Intensity Plate Reader, Molecular Devices, Sunnyvale, Calif.) (designated FLIPR assay). Cells from one clone (designated clone I-17) were seeded into 384-well plates (at approximately 48,000 cells per well) in a medium containing Dulbecco's modified Eagle's medium (DMEM) supplemented with GlutaMAX (Invitrogen, Carlsbad, Calif.), 10% dialyzed fetal bovine serum (Invitrogen, Carlsbad, Calif.), 100 Units/ml Penicillin G, 100 μg/ml Streptomycin (Invitrogen, Carlsbad, Calif.) and 60 pM mifepristone (to induce expression of hT1R1/hT1R3, (see WO 03/001876 A2). I-17 cells were grown for 48 hours at 37° C. I-17 cells were then loaded with the calcium dye Fluo-3AM (Molecular Probes, Eugene, Oreg.), 4 μM in a phosphate buffered saline (D-PBS) (Invitrogen, Carlsbad, Calif.), for 1.5 hours at room temperature. After replacement with 25 μl D-PBS, stimulation was performed in the FLIPR instrument and at room temperature by the addition of 25 μl D-PBS supplemented with different stimuli at concentrations corresponding to twice the desired final level. Receptor activity was quantified by determining the maximal fluorescence increases (using a 480 nm excitation and 535 nm emission) after normalization to basal fluorescence intensity measured before stimulation.
For dose-responses analysis, stimuli were presented in duplicates at 10 different concentrations ranging from 1.5 nM to 30 μM. Activities were normalized to the response obtained with 60 mM monosodium glutamate, a concentration that elicits maximum receptor response. EC50s (concentration of compound that causes 50% activation of receptor) were determined using a non-linear regression algorithm, where the Hill slope, bottom asymptotes and top asymptotes were allow to vary. Identical results were obtained when analyzing the dose-response data using commercially available software for non-linear regression analysis such as GraphPad PRISM (San Diego, Calif.).

| EC50 ratio (vs. MSG) ([1]; compound @ 1 μM) | EC50 ([2]; read-out: Umami EC50) [µM] | EC50 ratio (vs. MSG) ([1]; compound @ 3 μM) | EC50 ratio (enhanced the effectiveness of monosodium glutamate) ([1]; compound present at 0.03 μM) | EC50 ([2]; read-out: EC50 for activation of a hT1R1/hT1R3 umami receptor expressed in an HEK293 cell line) [µM] | SMILES |
| --- | --- | --- | --- | --- | --- |
| 3.1 | 11.8 | – | – | – | COc1ccc(CNc2ccccn2)cc1 [Example A8] |
| – | 5.19 | 3.6 | – | – | c1ccc2sc(SCc3cn4ccsc4n3)nc2c1 [Example A13] |
| – | – | – | 3 | 8.8 | CCCC(CCC)NC(=S)c1ccc2c(c1)OCO2 [Example 1, N-(heptan-4-yl)benzo[d][1,3]dioxole-5-carbothioamide] |
| 2.81 | 5.14 | – | – | – | c1ccc2oc(SCc3cn4ccccc4n3)nc2c1 [Example A12] |
| – | 6 | 3.8 | – | – | O=C(OCCCn1ncc2ccccc2c1=O)c1cccs1 [Example A7] |
| – | 1.43 | – | – | – | CC(C)c1ccc(NC(=S)NCCc2ccccn2)cc1 [Example A2] |
| – | 11.8 | 3.6 | – | – | COc1ccc(CNc2nc3ccccn3n2)cc1 [Example A9] |
| 4.7 | 4.53 | – | – | – | S=C(NCCc1ccccn1)Nc1cccc(Cl)c1 [Example A17] |
| – | 6.05 | – | – | – | COc1ccc(C(=O)CC(SCO)c2ccc(Cl)cc2)cc1 (stereo not drawn) [Example A10] |
| – | 6.34 | 6.5 | – | – | O=C(SCc1ccccn1)c1ccccc1 [Example A11] |
| – | 7.88 | – | – | – | CCCCC(C)NC(=S)NC1CCCc2ccccc21 (stereo not drawn) [Example A18] |
| – | 3.5 | 4.4 | – | – | O=C(OCCCc1nc2ccccc2[nH]1)c1cccs1 [Example A6] |
